Test results: patent publication US8877715B2, “Cytotoxic conjugates having neuropeptide Y receptor binding compound” (priority 2009, dated 2014)

Test system: Human MCF-7 breast carcinoma cells
Assay: In vivo growth assay, MCF-7 xenograft (Study A and Study B)
Set-up: species or system nude mice
Settings: for TGI: Day 15
Description: Once-weekly treatments were administered for three weeks by tail vein injection except in cases where poor drug solubility or tail necrosis necessitated intraperitoneal injections. […] Example 93 was evaluated in Study B at 55.45 mg/kg, 110.9 mg/kg and 221.8 mg/kg. Antitumor activity was assessed by tumor growth delay (“TGD”) defined as the difference in median time to endpoint tumor size in a treatment group compared to the control group, and by tumor growth inhibition (“TGI”) defined as the difference between median tumor volumes of the treatment and control groups on a study day providing a balance between measurable group responses and large group sizes. Toxicity was evaluated by body weight measurements and clinical observations.
Female nude mice (nu/nu, Harlan) were 10-11 weeks old and had body weight ranges of
The animals were fed ad libitum water (reverse osmosis, 1 ppm Cl) and NIH 31 Modified and Irradiated Lab Diet® consisting of 18.0% crude protein, 5.0% crude fat, and 5.0% crude fiber. The mice were housed on irradiated ALPHA-Dri® Bed-o′ Cobs® Laboratory Animal Bedding in static microisolators on a 12-hour light cycle at 21-22° C.
Human MCF-7 breast carcinoma cells were maintained in RPMI 1640 medium containing 100 units/mL penicillin G sodium, 100 μg/mL streptomycin sulfate, and 25 μg/mL gentamicin. The medium was supplemented with 10% heat-inactivated fetal bovine serum and 2 mM glutamine. Additional buffering was provided with 10 mM HEPES and 0.075% sodium bicarbonate. The tumor cells were cultured in tissue culture flasks in a humidified incubator at 37° C. in an atmosphere of 95% air and 5% CO2.
Three to seven days prior to cell injection, a pellet containing 17-β-estradiol (0.36 mg, 60-day release, Innovative Research of America) was implanted subcutaneously between the scapulae of each mouse.
The MCF-7 tumor cells used for implantation were harvested during log phase growth and resuspended in phosphate-buffered saline at 5×10^7 cells/mL. […] Tumors were monitored twice weekly and then daily as their volumes approached 80-120 mm^3. […] Thus, a separate study (“Study B”) was set up comprising six groups (n=10) of animals. In this study, 17 days elapsed between cell implantation and group assignment. […] Tumor size, in mm^3, was calculated from:
[formula] where w=width and l=length in mm of the MCF-7 tumor. Tumor weight may be estimated with the assumption that 1 mg is equivalent to 1 mm^3 of tumor volume.
Example 93 dosing solutions were prepared fresh in 0.1N acetic acid for each day of treatment.
Camptothecin (Lot No. 034K3648, Sigma) stock solutions were made from 60% DMA and 40% Tween 80 and stored at room temperature during the study. Dosing solutions were prepared fresh on each day of dosing by diluting the stocks 1:20 in saline.
The treatment plans are summarized in Table 3A for Study A and Table 3B for Study B.
All treatments and vehicles were given once-weekly for three doses (“qwk×3”). Group 1 mice received no gavage and no injections, and served as a control for tumor progression and estrogen toxicity. Group 2 animals received vehicle.
Each treatment dose was administered in a volume of 0.2 mL per 20 g of body weight, and was scaled to the body weight of the animal.
Median tumor growth curves of FIGS. 1-3 show median tumor volumes as a function of time. When an animal exited the study due to tumor size, the final tumor volume recorded for the animal was included with the data used to calculate the group median tumor volume at subsequent time points. Curves were truncated after 50% of animals in a group had exited the study.

For “[camptothecin-rvD-Asp-Suc-Tyr^1, Nle^17, 4Hyp^34]hNPY(1-36)-NH2 [Example 92]”, the “tumor growth inhibition (TGI)” value (Study A, Day 18) was “dose-related, significantly so at 110.6 and 221.2 mg/kg, and of potential therapeutic value at the higher dose level”, the mean tumor volume (Study A, G 7: 55.3 mg/kg qwk x 3, D 1) was 124.1 mm^3 and the mean tumor volume (Study A, G 7: 55.3 mg/kg qwk x 3, D 4) was 112.3 mm^3. The mean tumor volume (Study A, G 7: 55.3 mg/kg qwk x 3, D 7) was 139.2 mm^3, the mean tumor volume (Study A, G 7: 55.3 mg/kg qwk x 3, D 11) was 168.4 mm^3 and the mean tumor volume (Study A, G 7: 55.3 mg/kg qwk x 3, D 14) was 250.9 mm^3. The mean tumor volume (Study A, G 7: 55.3 mg/kg qwk x 3, D 18) was 242.9 mm^3, the mean tumor volume (Study A, G 7: 55.3 mg/kg qwk x 3, D 21) was 262.5 mm^3 and the mean tumor volume (Study A, G 7: 55.3 mg/kg qwk x 3, D 25) was 385.9 mm^3. For the same substance, the mean tumor volume (Study A, G 7: 55.3 mg/kg qwk x 3, D 28) was 505.1 mm^3, the mean tumor volume (Study A, G 7: 55.3 mg/kg qwk x 3, D 32) was 532.2 mm^3 and the mean tumor volume (Study A, G 7: 55.3 mg/kg qwk x 3, D 35) was 631 mm^3. For the same substance, the mean tumor volume (Study A, G 7: 55.3 mg/kg qwk x 3, D 39) was 978 mm^3, the mean tumor volume (Study A, G 8: 110.6 mg/kg qwk x 3, D 1) was 124.1 mm^3 and the mean tumor volume (Study A, G 8: 110.6 mg/kg qwk x 3, D 4) was 130.8 mm^3. It also gave a mean tumor volume (Study A, G 8: 110.6 mg/kg qwk x 3, D 7) of 127.5 mm^3, a mean tumor volume (Study A, G 8: 110.6 mg/kg qwk x 3, D 11) of 146 mm^3 and a mean tumor volume (Study A, G 8: 110.6 mg/kg qwk x 3, D 14) of 184.6 mm^3. It also gave a mean tumor volume (Study A, G 8: 110.6 mg/kg qwk x 3, D 18) of 187.9 mm^3, a mean tumor volume (Study A, G 8: 110.6 mg/kg qwk x 3, D 21) of 216.2 mm^3 and a mean tumor volume (Study A, G 8: 110.6 mg/kg qwk x 3, D 25) of 337.3 mm^3. The mean tumor volume (Study A, G 8: 110.6 mg/kg qwk x 3, D 28) was 439.6 mm^3, the mean tumor volume (Study A, G 8: 110.6 mg/kg qwk x 3, D 32) was 454.8 mm^3 and the mean tumor volume (Study A, G 8: 110.6 mg/kg qwk x 3, D 35) was 550.5 mm^3. The mean tumor volume (Study A, G 8: 110.6 mg/kg qwk x 3, D 39) was 938 mm^3, the mean tumor volume (Study A, G 9: 221.2 mg/kg qwk x 3, D 1) was 124.1 mm^3 and the mean tumor volume (Study A, G 9: 221.2 mg/kg qwk x 3, D 4) was 118.3 mm^3. The mean tumor volume (Study A, G 9: 221.2 mg/kg qwk x 3, D 7) was 118.9 mm^3, the mean tumor volume (Study A, G 9: 221.2 mg/kg qwk x 3, D 11) was 118.8 mm^3 and the mean tumor volume (Study A, G 9: 221.2 mg/kg qwk x 3, D 14) was 109.4 mm^3. The mean tumor volume (Study A, G 9: 221.2 mg/kg qwk x 3, D 18) was 129.5 mm^3, the mean tumor volume (Study A, G 9: 221.2 mg/kg qwk x 3, D 21) was 150.1 mm^3 and the mean tumor volume (Study A, G 9: 221.2 mg/kg qwk x 3, D 25) was 172.2 mm^3. It also gave a mean tumor volume (Study A, G 9: 221.2 mg/kg qwk x 3, D 28) of 197.7 mm^3, a mean tumor volume (Study A, G 9: 221.2 mg/kg qwk x 3, D 32) of 213.8 mm^3 and a mean tumor volume (Study A, G 9: 221.2 mg/kg qwk x 3, D 35) of 301.7 mm^3. The mean tumor volume (Study A, G 9: 221.2 mg/kg qwk x 3, D 39) was 372 mm^3, the tumor regressions (Study A, highest dose level (222.6 or 221.2 mg/kg), TGD-evaluated sample) was 3/5 and the “tumor growth delay (TGD)” value (Study A, three dose levels, qwk x 3) was “dose-related TGD, reaching statistical significance”.

“[camptothecin-rvD-Asp-Suc-Tyr^1, Nle^17, A6c^31, 4Hyp^34]hNPY(1-36)-NH2 [Example 93]” was tested, and the “tumor growth delay (TGD)” value (Study B) was “TGD analysis did not distinguish responses to Example 93 from tumor growth in the untreated control”, the TGI (Study B, 110.9 mg/kg) was 71% and the TGI (Study B, 221.8 mg/kg) was 77%. For the same substance, the mean tumor volume (Study B, G 4: 55.45 mg/kg qwk x 3, D 1) was 112.9 mm^3, the mean tumor volume (Study B, G 4: 55.45 mg/kg qwk x 3, D 4) was 206.3 mm^3 and the mean tumor volume (Study B, G 4: 55.45 mg/kg qwk x 3, D 8) was 227.6 mm^3. For the same substance, the mean tumor volume (Study B, G 4: 55.45 mg/kg qwk x 3, D 12) was 236.1 mm^3, the mean tumor volume (Study B, G 4: 55.45 mg/kg qwk x 3, D 15) was 323.1 mm^3 and the mean tumor volume (Study B, G 4: 55.45 mg/kg qwk x 3, D 19) was 348.4 mm^3. It also gave a mean tumor volume (Study B, G 4: 55.45 mg/kg qwk x 3, D 22) of 343.3 mm^3, a mean tumor volume (Study B, G 4: 55.45 mg/kg qwk x 3, D 26) of 366.9 mm^3 and a mean tumor volume (Study B, G 4: 55.45 mg/kg qwk x 3, D 29) of 426.8 mm^3. The mean tumor volume (Study B, G 4: 55.45 mg/kg qwk x 3, D 33) was 524.5 mm^3, the mean tumor volume (Study B, G 4: 55.45 mg/kg qwk x 3, D 36) was 621.9 mm^3 and the mean tumor volume (Study B, G 4: 55.45 mg/kg qwk x 3, D 40) was 452.8 mm^3. For the same substance, the mean tumor volume (Study B, G 5: 110.9 mg/kg qwk x 3, D 1) was 112.8 mm^3, the mean tumor volume (Study B, G 5: 110.9 mg/kg qwk x 3, D 4) was 217.3 mm^3 and the mean tumor volume (Study B, G 5: 110.9 mg/kg qwk x 3, D 8) was 213 mm^3. The mean tumor volume (Study B, G 5: 110.9 mg/kg qwk x 3, D 12) was 186.6 mm^3, the mean tumor volume (Study B, G 5: 110.9 mg/kg qwk x 3, D 15) was 242.5 mm^3 and the mean tumor volume (Study B, G 5: 110.9 mg/kg qwk x 3, D 19) was 212.6 mm^3. For the same substance, the mean tumor volume (Study B, G 5: 110.9 mg/kg qwk x 3, D 22) was 207.7 mm^3, the mean tumor volume (Study B, G 5: 110.9 mg/kg qwk x 3, D 26) was 225.5 mm^3 and the mean tumor volume (Study B, G 5: 110.9 mg/kg qwk x 3, D 29) was 308.7 mm^3. It also gave a mean tumor volume (Study B, G 5: 110.9 mg/kg qwk x 3, D 33) of 112.3 mm^3, a mean tumor volume (Study B, G 5: 110.9 mg/kg qwk x 3, D 36) of 141.1 mm^3 and a mean tumor volume (Study B, G 5: 110.9 mg/kg qwk x 3, D 40) of 229.5 mm^3. It also gave a mean tumor volume (Study B, G 6: 221.8 mg/kg qwk x 3, D 1) of 112.7 mm^3, a mean tumor volume (Study B, G 6: 221.8 mg/kg qwk x 3, D 4) of 197.9 mm^3 and a mean tumor volume (Study B, G 6: 221.8 mg/kg qwk x 3, D 8) of 170.3 mm^3. It also gave a mean tumor volume (Study B, G 6: 221.8 mg/kg qwk x 3, D 12) of 108 mm^3, a mean tumor volume (Study B, G 6: 221.8 mg/kg qwk x 3, D 15) of 122.8 mm^3 and a mean tumor volume (Study B, G 6: 221.8 mg/kg qwk x 3, D 19) of 66.6 mm^3. For the same substance, the mean tumor volume (Study B, G 6: 221.8 mg/kg qwk x 3, D 22) was 66 mm^3, the mean tumor volume (Study B, G 6: 221.8 mg/kg qwk x 3, D 26) was 80.4 mm^3 and the mean tumor volume (Study B, G 6: 221.8 mg/kg qwk x 3, D 29) was 90.1 mm^3. It also gave a mean tumor volume (Study B, G 6: 221.8 mg/kg qwk x 3, D 33) of 109.6 mm^3, a mean tumor volume (Study B, G 6: 221.8 mg/kg qwk x 3, D 36) of 123.8 mm^3 and a mean tumor volume (Study B, G 6: 221.8 mg/kg qwk x 3, D 40) of 233.2 mm^3. For the same substance, the tumor growth curves (Study B, all dose levels) was “clear reduction in tumor growth at all dose levels”.
